How the values were obtained:
[1] = target: T1, truncated SirT6 (deletion of N terminal 17 amino acids) (Homo sapiens, UniProt Q8N6T7); test: Deacetylation rate of truncated SirT6 with suramin or single stranded DNA; format: biochemical; details: 50 μM suramin or 100 ng/μl single stranded DNA; 800 μM NAD, 480 μM H3, 10 μM enzyme
T1 construct: The truncated SIRT6 was cloned similarly with the full length SIRT6; poly-histidine (pET28a) (N); made in house; host or cells: E. coli BL21 Codon-plus RIPL
T1 sequence (Q8N6T7 with tags, fused parts or gaps): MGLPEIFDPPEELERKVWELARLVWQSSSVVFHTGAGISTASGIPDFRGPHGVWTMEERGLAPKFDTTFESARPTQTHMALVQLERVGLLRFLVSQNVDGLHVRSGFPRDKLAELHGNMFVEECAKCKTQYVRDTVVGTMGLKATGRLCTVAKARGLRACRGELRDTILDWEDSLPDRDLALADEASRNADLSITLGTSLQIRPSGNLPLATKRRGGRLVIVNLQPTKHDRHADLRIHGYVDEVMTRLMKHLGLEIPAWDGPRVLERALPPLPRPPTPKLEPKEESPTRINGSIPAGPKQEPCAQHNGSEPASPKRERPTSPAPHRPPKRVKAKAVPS
From the text: The deacetylation rate of different truncated SirT6 was normalized to the rate of full length SirT6 for the comparison.
The truncated SIRT6 was cloned similarly with the full length SIRT6. The primers used in the cloning of different truncated SIRT6 are the following: SIRT6Δ2-7 Forward 5′ GCTAGC ATGGGGCTGTCGCCGTACGCG 3′ (SEQ ID NO: 4); SIRT6Δ2-12 Forward 5′ GCTAGC ATG […] 3′ (SEQ ID NO: 5); SIRT6Δ2-18 Forward 5′ GCTAGC ATGGGCCTCCCGGAGATCTTCGAC 3′ (SEQ ID NO: 6); SIRT6Δ2-51 Forward 5′ 5′ GCTAGC ATGACGGGTGCCGGCATCAGCACT 3′ (SEQ ID NO: 7). The common reverse primer is 5′[…] 3′ (SEQ ID NO: 8). The truncated SIRT6 was amplified by PCR reaction. The PCR product was then ligated into pSTblue-1 (Novagen). After digestion with NheI and BamHI, the fragment containing SIRT6 gene was ligated into pET28a vector (Novagen). The SIRT6 truncated sequence in pET28a plasmid was confirmed by DNA sequencing, and the plasmid was then transformed into BL21Codon-plus RIPL cells (Stratagene). The protein expression and purification were the same as the full length SIRT6 as described above.

SirT1 = target: T2, SirT1 (Homo sapiens, UniProt Q96EB6); test: SirT1 deacetylation, Km of H3 with and without ssDNA; format: biochemical; details: 100 ng/μl ssDNA
T2 sequence (Q96EB6 1-747): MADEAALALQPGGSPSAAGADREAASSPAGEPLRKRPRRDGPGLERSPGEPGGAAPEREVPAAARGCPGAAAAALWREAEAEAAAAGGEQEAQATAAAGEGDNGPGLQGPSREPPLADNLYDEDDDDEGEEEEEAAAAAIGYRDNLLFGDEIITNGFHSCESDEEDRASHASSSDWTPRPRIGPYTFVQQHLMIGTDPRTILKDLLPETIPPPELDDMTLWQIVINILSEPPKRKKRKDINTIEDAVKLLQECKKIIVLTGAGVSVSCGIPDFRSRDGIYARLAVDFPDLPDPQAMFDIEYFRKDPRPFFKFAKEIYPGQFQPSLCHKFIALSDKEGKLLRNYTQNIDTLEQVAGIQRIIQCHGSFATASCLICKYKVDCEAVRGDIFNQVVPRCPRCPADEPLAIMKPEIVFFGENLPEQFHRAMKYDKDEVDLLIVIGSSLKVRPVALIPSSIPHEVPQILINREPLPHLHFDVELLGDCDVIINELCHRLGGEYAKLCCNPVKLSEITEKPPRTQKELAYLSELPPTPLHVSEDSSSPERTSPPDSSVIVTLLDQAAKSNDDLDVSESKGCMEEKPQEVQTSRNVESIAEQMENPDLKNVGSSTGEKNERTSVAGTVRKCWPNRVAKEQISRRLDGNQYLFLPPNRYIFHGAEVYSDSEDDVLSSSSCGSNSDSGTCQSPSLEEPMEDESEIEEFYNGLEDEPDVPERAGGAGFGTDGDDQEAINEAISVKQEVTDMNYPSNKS
From the text: The quantified data were fit into Michaelis-Menten equation to get Km of H3.

## ssDNA: ssDNA 5′ GGGGATCCATGAAGATGAGCTTTGCGTTGACT 3′ (SEQ ID NO: 9), Integrated DNA Technologies (DNA, backbone and methylation of C not given here)
[1]
  Activation of truncated SirT6 deacetylation: lost of activation
SirT1
  Deacetylation activity of SirT1: not activated

Reference: US9322049B2, “Activation and activators of SirT6” (CORNELL UNIVERSITY, priority 2009, dated 2016)
